Values joined by “and” are separate entries in the source; they are usually repeats but may differ in a detail not shown here. Equal values may be shown once.
Conditions: Liquid, Closed cell (Static) method

O [water]
Conditions | vapor or sublimation pressure
279.48 K | 0.953 kPa
286.16 K | 1.508 kPa
291.39 K | 2.094 kPa
293.14 K | 2.337 kPa
296.31 K | 2.839 kPa
296.32 K | 2.834 kPa
298.81 K | 3.288 kPa
301.37 K | 3.827 kPa
303.57 K | 4.36 kPa
307.73 K | 5.507 kPa
308.26 K | 5.666 kPa
312.87 K | 7.275 kPa
313.07 K | 7.345 kPa
314.62 K | 7.977 kPa
318.13 K | 9.585 kPa and 9.578 kPa
322.99 K | 12.26 kPa
323.1 K | 12.32 kPa
323.17 K | 12.36 kPa
328.14 K | 15.75 kPa
328.88 K | 16.31 kPa

CO [methanol]
Conditions | vapor or sublimation pressure [kPa]
274.15 K | 4.252
278.15 K | 5.501
283.15 K | 7.411
293.15 K | 13
303.15 K | 21.86
313.15 K | 35.43
323.15 K | 55.54
333.15 K | 84.93
343.15 K | 125.74
353.15 K | 181.56
363.15 K | 256.27
373.15 K | 354.35
383.15 K | 480.82
393.15 K | 641.27
403.15 K | 841.83
413.15 K | 1089.2
